Each structure is given as a SMILES string.

Broadly, the efflux ratio is the permeability from basolateral to apical divided by that in the opposite direction, in the common usage.

The target in one series is PDE10 (Rattus norvegicus (Rat), UniProt Q9QYJ6). The series can be described thus: PDE10 ex vivo receptor occupancy (RO) screening in rat striatum. The note with it: oral; for receptor occupancy at 3 mg/kg: 3 mpk, 4 h (footnote C); for receptor occupancy at 10 mg/kg: 10 mpk. As for the experimental part: The ex vivo screening protocol was approved by Amgen's Institutional Animal Care and Use Committee (IACUC) and in accordance with the National Institutes of Health Guide for Care and Use of Laboratory Animals in facilities accredited by the Association for the Assessment and Accreditation of Laboratory Animal Care (AALAC).
PDE10 inhibitors were dissolved in 2% Hydroxypropylmethylcellulose (HPMC), 1% Tween-80, pH 2.2 with methanesulfonic acid. Male Sprague Dawley® rats weighing 180-225 g (4 per group) were dosed orally with either vehicle or PDE10 inhibitors (3 mg/kg or 10 mg/kg) and then returned to their home cage to allow for absorption of the compounds. After one hour (with 10 mg/kg PDE10 inhibitor) or four hours (with 3 mg/kg or 10 mg/kg PDE10 inhibitor) rats were sacrificed by CO2 inhalation. Blood was obtained by heart puncture and plasma was frozen and stored at −80° C. for exposure analysis. Brains were removed and immediately frozen in chilled methylbutane, and stored at −80° C. until cutting. Three coronal brain slices per brain containing the striatum were cut at […] using a cryostat and placed onto microscope slides, air-dried and stored at −20° C. For radioligand binding experiments, slides were thawed at room temperature and then incubated with 1 nM a tritium labeled tracer compound (insert citation) in binding buffer (150 mM Phosphate-buffered saline containing 2 mM MgCl2 and 100 mM DTT, pH 7.4) for 1 minute at 4° C. To assess non-specific binding, slides containing adjacent brain sections were incubated in the same solution with addition of […] of an unlabelled, structurally unrelated PDE10 antagonist. Afterwards slides were washed 3 times in ice-cold binding buffer, dipped into distilled water to remove buffer salts, and dried under a stream of cold air. Emission of beta particles from the sections was counted for 8 hours in a Beta Imager 2000 (Biospace, Paris, France) and digitized and analyzed using M3 Vision software (Biospace, Paris, France). Total binding radioactivity in the striatum was measured as cpm/mm^2 in hand-drawn regions of interest and averaged across the three sections per brain. Non-specific binding was subtracted to obtain specific binding values and percent occupancy was calculated by setting vehicle specific binding as 0% occupancy.

A further series has as its system rat MDR1 (mdr1a, P-gp). The series can be described thus: Transcellular transport in rat mdr1a-transfected LLC-PK1 cells. The series is classed as in vitro ADME. The note with it: pH 7.4, mdr1a-LLC-PK1, 5 μM test compound. As for the experimental part:
Digoxin and mannitol were purchased from Sigma-Aldrich (St. Louis, Mo.). 3H-digoxin and 14C-mannitol were purchased from PerkinElmer Life and Analytical Sciences (Boston, Mass.). Transport buffer was prepared using Hank's balanced salt solution (HBSS) supplemented with 10 mM Hepes, pH 7.4 and 0.1% BSA (HHBSS, Invitrogen, Grand Island, N.Y., BSA, Bovine Serum Albumin, Calbiochem, La Jolla, Calif.).
Cultures were incubated at 37° C. in a humidified (95% relative humidity) atmosphere of 5% CO2/95% air. The parental cell line LLC-PK1 (porcine renal epithelial cells) was purchased from American Type Culture Collection (ATCC, Manassas, Va.). Human MDR1 and Sprague-Dawley rat mdra1 transfectants in LLC-PK1 were generated at Amgen (Thousand Oaks, Calif.). Cells were cultured in Medium 199 supplemented with 2 mM L-glutamine, penicillin (50 units/mL), streptomycin (50 μg/mL), and 10% (v/v) fetal bovine serum (all from Invitrogen) (Schinkel et al, 1995).
LLC-PK1, MDR1-LLC-PK1, and mdr1a-LLC-PK1 cell monolayers were seeded onto porous (1.0 μm) polycarbonate 96-well transwell membrane filters (Millipore Corp., Billerica, Mass.) and cultured for six days with one media replacement on day four prior to transwell experiments. Cells were washed once with warmed HHBS prior to transwell experiments. Experiments were initiated by replacing the buffer in each compartment with 0.15 mL of HBSS containing 0.1% BSA with and without 5 μM of test compound in triplicate wells. The plates were incubated for two hours at 37° C. in an EVO incubator with shaking. Aliquots (100 μl) from both donor and receiver chambers were transferred to 96 well plates or scintillation vials. Protein was precipitated by addition of 200 μL acetonitrile containing 0.1% formic acid and prazosin (25 ng/mL) as internal standard. After vortexing and centrifugation at 3000 rpm for 20 min, 150 μL supernatant samples were transferred to a new plate containing 50 μL water for LC-MS/MS analysis. Transcellular transport of 3H-Digoxin was used as a positive control for Pgp. Paracellular permeability of 14C-Mannitol was used to measure the integrity of the monolayer. Sample radioactivity was measured using a liquid scintillation counter (Packard Tri-Carb 2910TR, PerkinElmer).
The apparent permeability coefficient (Papp) of all tested agents was estimated from the slope of cumulative amount (dQ) of the agent vs. time (dt), and the equation: Papp=(dQ/dt)/(A*C0)
where dQ/dt is the penetration rate of the agent […], A is the surface area of the cell layer on the Transwell (0.11 cm2), and CO is the initial concentration of the test compound (μM).

Chain of PDE10 (Q9QYJ6 whole entry): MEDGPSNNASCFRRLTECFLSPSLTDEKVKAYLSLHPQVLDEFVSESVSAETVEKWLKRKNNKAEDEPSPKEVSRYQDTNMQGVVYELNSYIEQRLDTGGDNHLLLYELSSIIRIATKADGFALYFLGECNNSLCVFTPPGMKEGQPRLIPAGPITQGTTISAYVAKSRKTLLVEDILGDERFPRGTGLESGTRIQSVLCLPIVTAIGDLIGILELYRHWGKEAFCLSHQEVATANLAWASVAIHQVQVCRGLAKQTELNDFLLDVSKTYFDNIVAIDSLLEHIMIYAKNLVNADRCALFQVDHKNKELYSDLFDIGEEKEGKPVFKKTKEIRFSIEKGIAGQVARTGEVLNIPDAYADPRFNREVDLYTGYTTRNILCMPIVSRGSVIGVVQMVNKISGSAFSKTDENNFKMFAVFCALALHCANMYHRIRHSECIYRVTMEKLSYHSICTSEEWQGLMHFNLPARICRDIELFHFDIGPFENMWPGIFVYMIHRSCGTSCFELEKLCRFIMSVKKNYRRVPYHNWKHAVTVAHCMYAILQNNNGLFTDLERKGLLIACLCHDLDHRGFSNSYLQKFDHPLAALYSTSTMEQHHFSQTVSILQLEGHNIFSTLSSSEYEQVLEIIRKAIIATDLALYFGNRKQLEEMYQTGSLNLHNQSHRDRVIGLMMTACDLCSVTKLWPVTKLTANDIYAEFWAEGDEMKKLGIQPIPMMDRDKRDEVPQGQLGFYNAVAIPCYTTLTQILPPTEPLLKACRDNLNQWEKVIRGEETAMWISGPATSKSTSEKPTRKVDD

As for `CNC(=O)c1ccc(-c2nccnc2C2CCN(c3ccc4ccc(Cl)cc4n3)CC2)cc1F` [Example 1, 4-(3-(1-(7-Chloroquinolin-2-Yl)Piperidin-4-Yl)Pyrazin-2-Yl)-2-Fluoro-N-Methylbenzamide], the receptor occupancy at 3 mg/kg on PDE10 was 58.8%. Further, the receptor occupancy at 10 mg/kg on PDE10 (4 h (footnote B)) is 79%. The efflux ratio at 2 h, 5 μM in the series on rat MDR1 (mdr1a, P-gp) is 2.3.
As for `CNC(=O)c1ccc(-c2nccnc2C2CCN(c3ccc4ccc(F)cc4n3)CC2)cc1F` [Example 2, 2-Fluoro-4-(3-(1-(7-Fluoroquinolin-2-Yl)Piperidin-4-Yl) Pyrazin-2-Yl)-N-Methylbenzamide], on PDE10 (4 h (footnote B)), the receptor occupancy at 10 mg/kg amounted to 112%. Also, the efflux ratio at 2 h, 5 μM in the series on rat MDR1 (mdr1a, P-gp) was 2.7.
On PDE10, `CNC(=O)c1ccc(-c2nccnc2C2CCN(c3ccc4ccccc4n3)CC2)cc1F` [Example 3, 2-Fluoro-N-Methyl-4-(3-(1-(Quinolin-2-Yl)Piperidin-4-Yl)Pyrazin-2-Yl)Benzamide] had a receptor occupancy at 3 mg/kg of 97.4%. Also, the efflux ratio at 2 h, 5 μM with rat MDR1 (mdr1a, P-gp) came to 2.1.
For `CNC(=O)c1ccc(-c2nccnc2C2CCN(c3ccc4cc(F)ccc4n3)CC2)cc1F` [Example 4, 2-Fluoro-4-(3-(1-(6-Fluoroquinolin-2-Yl)Piperidin-4-Yl)Pyrazin-2-Yl)-N-Methylbenzamide] the same measures were 93.3% and 2.2.
Compound `CNC(=O)c1ccc(-c2nccnc2C2CCN(c3ccc4cccc(F)c4n3)CC2)cc1F` [Example 5, 2-Fluoro-4-(3-(1-(8-Fluoroquinolin-2-Yl)Piperidin-4-Yl)Pyrazin-2-Yl)-N-Methylbenzamide] had a receptor occupancy at 3 mg/kg on PDE10 of 68.3%. Moreover, the efflux ratio at 2 h, 5 μM with rat MDR1 (mdr1a, P-gp) was found to be 2.3.
`CNC(=O)c1ccc(-c2nccnc2C2CN(c3ncc4ccccc4n3)C2)cc1F` [Example 6, 2-Fluoro-N-Methyl-4-(3-(1-(Quinazolin-2-Yl)Azetidin-3-Yl)Pyrazin-2-Yl)Benzamide] came in with a receptor occupancy at 3 mg/kg on PDE10 of 62.6%. In addition, at PDE10 (1 h (footnote A)), the receptor occupancy at 10 mg/kg was determined as 85.4%. Further, the efflux ratio at 2 h, 5 μM in the series with rat MDR1 (mdr1a, P-gp) turned out to be 1.2.
Turning to `CNC(=O)c1ccc(-c2nccnc2C2CN(c3ccc4ccccc4n3)C2)cc1F` [Example 7, 2-Fluoro-N-Methyl-4-(3-(1-(Quinolin-2-Yl)Azetidin-3-Yl) Pyrazin-2-Yl)Benzamide], the receptor occupancy at 3 mg/kg on PDE10 amounted to 110%. For the same compound, at PDE10 (1 h (footnote A)), the receptor occupancy at 10 mg/kg stood at 93.2%. Moreover, the efflux ratio at 2 h, 5 μM in the series on rat MDR1 (mdr1a, P-gp) was determined as 3.1.
For the compound `CNC(=O)c1ccc(-c2nccnc2C2CN(c3ccc4ccc(F)cc4n3)C2)cc1F` [Example 8, 2-Fluoro-4-(3-(1-(7-Fluoroquinolin-2-Yl)Azetidin-3-Yl) Pyrazin-2-Yl)-N-Methylbenzamide], at PDE10, the receptor occupancy at 3 mg/kg is 83.5%. At PDE10 (1 h (footnote A)), the receptor occupancy at 10 mg/kg is 134%. In the series with rat MDR1 (mdr1a, P-gp), the efflux ratio at 2 h, 5 μM was 2.5.
`CNC(=O)c1ccc(-c2nccnc2C2CN(c3ncc4ccc(F)cc4n3)C2)cc1F` [Example 9, 2-Fluoro-4-(3-(1-(7-Fluoroquinazolin-2-Yl)Azetidin-3-Yl)Pyrazin-2-Yl)-N-Methylbenzamide] had a receptor occupancy at 3 mg/kg on PDE10 of 61.8%. Moreover, the receptor occupancy at 10 mg/kg on PDE10 (1 h (footnote A)) came to 123%; at PDE10 (4 h (footnote B)), 87.1%. In the series with rat MDR1 (mdr1a, P-gp), the efflux ratio at 2 h, 5 μM was 2.7.
Turning to `CNC(=O)c1ccc(-c2nccnc2C2CN(c3ncc4ccc(Cl)cc4n3)C2)cc1F` [Example 10, 4-(3-(1-(7-Chloroquinazolin-2-Yl)Azetidin-3-Yl)Pyrazin-2-Yl)-2-Fluoro-N-Methylbenzamide], the receptor occupancy at 3 mg/kg at PDE10 amounted to 108%. The same compound came in with a receptor occupancy at 10 mg/kg on PDE10 (1 h (footnote A)) of 101%. In the series on rat MDR1 (mdr1a, P-gp), the efflux ratio at 2 h, 5 μM amounted to 1.2.
The compound `CNC(=O)c1ccc(-c2nccnc2C2CN(c3ncc4cc(F)ccc4n3)C2)cc1F` [Example 11, 2-Fluoro-4-(3-(1-(6-Fluoroquinazolin-2-Yl)Azetidin-3-Yl)Pyrazin-2-Yl)-N-Methylbenzamide] registered a receptor occupancy at 3 mg/kg on PDE10 of 67.5%. Further, on PDE10 (4 h (footnote B)), the receptor occupancy at 10 mg/kg was 80%. The efflux ratio at 2 h, 5 μM in the series with rat MDR1 (mdr1a, P-gp) amounted to 1.2.
At PDE10, `CNC(=O)c1ccc(-c2nccnc2C2CN(c3ncc4cc(F)c(Cl)cc4n3)C2)cc1F` [Example 12, 4-(3-(1-(7-Chloro-6-Fluoroquinazolin-2-Yl)Azetidin-3-Yl)Pyrazin-2-Yl)-2-Fluoro-N-Methylbenzamide] displayed a receptor occupancy at 3 mg/kg of 91.4%. In addition, the efflux ratio at 2 h, 5 μM in the series with rat MDR1 (mdr1a, P-gp) was found to be 2.8.
`CNC(=O)c1ccc(-c2nccnc2C2CN(c3ccc4cc(F)ccc4n3)C2)cc1F` [Example 13, 2-Fluoro-4-(3-(1-(6-Fluoroquinolin-2-Yl)Azetidin-3-Yl) Pyrazin-2-yl)-N-Methylbenzamide] showed a receptor occupancy at 3 mg/kg at PDE10 of 77%. Moreover, the efflux ratio at 2 h, 5 μM with rat MDR1 (mdr1a, P-gp) came out at 2.7.
`CNC(=O)c1ccc(-c2nccnc2C2CN(c3ccc4ncc(Cl)cc4n3)C2)cc1F` [Example 14, 4-(3-(1-(7-Chloro-1,5-Naphthyridin-2-Yl)Azetidin-3-Yl)Pyrazin-2-Yl)-2-Fluoro-N-Methylbenzamide] came in with a receptor occupancy at 3 mg/kg at PDE10 of 78.5%. Further, the efflux ratio at 2 h, 5 μM with rat MDR1 (mdr1a, P-gp) was determined as 1.1.

(Values after patent US8691986B2, “Azetidine and piperidine compounds useful as PDE10 inhibitors” (Amgen Inc., priority 2012, dated 2014).)
